Test results: US6455714B1, “Labeled vitamin D compounds and the use thereof” (A & D BioScience, Inc., priority 1995, dated 2002)
Where two headings read alike, the source gives them in different places.

How the values were obtained:
DBP [1] = target: T1, DBP (Homo sapiens, UniProt P02774); assay: ELISA to demonstrate that compound C can be competed out with 25-OH-D3; type: binding; settings: 2 μg 25-OH-D3 added with C (30, 60, 120 ng); triplicate
T1 construct: purchased Calbiochem, San Diego, Calif
T1 sequence (P02774 17-474): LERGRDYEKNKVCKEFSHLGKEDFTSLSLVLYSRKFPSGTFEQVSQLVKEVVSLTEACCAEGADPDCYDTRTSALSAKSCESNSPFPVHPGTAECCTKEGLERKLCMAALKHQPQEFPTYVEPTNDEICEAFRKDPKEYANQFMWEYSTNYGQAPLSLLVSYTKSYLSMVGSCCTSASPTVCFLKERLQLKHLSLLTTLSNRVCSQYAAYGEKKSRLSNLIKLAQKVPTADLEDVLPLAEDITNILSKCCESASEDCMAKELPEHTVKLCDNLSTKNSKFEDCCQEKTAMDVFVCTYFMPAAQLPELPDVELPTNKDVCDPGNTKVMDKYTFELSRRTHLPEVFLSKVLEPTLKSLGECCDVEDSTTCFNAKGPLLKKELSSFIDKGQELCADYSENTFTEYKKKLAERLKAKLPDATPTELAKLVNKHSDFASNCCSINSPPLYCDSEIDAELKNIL
Procedure: In the next experiment, it was determined whether it would be possible to displace compound C, bound to DBP (which is attached to an ELISA plate), with a known concentration of 25-OH-D3. In a real sample, one will be measuring the amount of 25-OH-D and not that of compound C.
Procedure: same as before, except either C, or C and 2 μg of 25-OH-D3 were added to each plate. Each concentration (point) was done in triplicate. The blank contained no 25-OH-D3 or C.
Furthermore, the amount of compound C is […] to the concentration of added 25-OH-D3.

[2] = target: T2, Human Vitamin D-binding Protein (hDBP) (Homo sapiens, UniProt P02774)
T2 sequence (P02774 17-474): T1 sequence (P02774 17-474)
Procedure: Competitive Radioligand Binding Assays of Aanalogs (C) and (F) with Human Vitamin D-binding Protein (hDBP)
These assays were carried out to determine the viability of these synthetic analogs to serve as substrates for hDBP.

DBP [3] = target: T1, DBP; assay: Checkerboard titration (ELISA) of DBP and compound C to obtain a colorimetric signal; type: binding; settings: with minimum 6.25 ng DBP; color determined visually
Procedure: The method involves attachment of DBP to an ELISA plate followed by the addition of a known quantity of 25-OH-D3-biotin conjugate (compound C). […] Excess amount of C is washed off, and an excess of avidin is added which gets bound to biotin attached to 25-OH-D3. The plate is then incubated in sequence with anti-avidin antibody, a secondary antibody coupled to horseradish peroxidase (HRP), and ABTS (2,2′-azino-di-(3-ethylbenzthiazoline)sulfonate, the substrate that produces a […] color which may be monitored spectrophotometrically or visually. The intensity (absorbance) of the color is directly proportional to the concentration of compound C. In the first experiment, the optimal concentrations of DBP and compound C to develop color were determined (visually). In this experiment, each sample of DBP was tested against each amount of compound C.
A. Determination of the Optimal Amount of DBP and Compound (C) in a Checkerboard Titration (ELISA) to obtain a Colorimetric Signal
Add different amounts of purified hDBP (From Calbiochem, San Diego, Calif., in 100 mM Na2CO3 buffer, pH 8.4) to wells of an ELISA plate
Block excess sites with BSA (1 mg/ml, 300 μl)
↓ wash with PBS containing 0.05% TWEEN 20
Add different amounts of C in EtOH
Wash with PBS containing 0.05% TWEEN 20 (Biorad, Richmond, Calif.) […]
Color development detected visually or spectrophotometrically.

## C=C1CC[C@H](O)C/C1=C/C=C1\CCC[C@]2(C)[C@@H]([C@H](C)CCCC(C)(C)O)CC[C@@H]12 [Compound 25-OH-D3, 25-hydroxyvitamin D3]
DBP [1]
  displacement of compound C bound to DBP on an ELISA plate (color development): capable of displacing compound C bound to DBP

## Biotin conjugate of 25-OH-D3-3-aminopropyl-3-(6-amino) hexanoic acid
[2]; FIG. 1
  ability to replace 25-OH-D3 for DBP binding: can replace 25-OH-D3 for DBP binding

## C=C1CC[C@H](OCCCNC(=O)CCCCCNC(=O)CCCC[C@@H]2SC[C@@H]3NC(=O)N[C@@H]32)C/C1=C/C=C1\CCC[C@]2(C)[C@@H]([C@H](C)CCCC(C)(C)O)CC[C@@H]12 [C, Conjugate of 25-OH-D3-3-Aminopropyl Ether and Biotin-X-NHS]
[2]
  ability to replace 25-OH-D3 for DBP binding: can replace 25-OH-D3 for DBP binding
  times less efficient than 25-OH-D3 in displacing 3H-25-OH-D3 bound to hDBP: ~11 times
DBP [3]
  minimum amount required to obtain yellow color: 30 ng
